Experimental data as given in US6776984B1, “Induced regeneration and repair of damaged neurons and nerve axon myelin” (priority 1999, dated 2004).

Tested on: B6SJL-TgN(SOD1-G93A)1 Gur strain mice
Assay: Transgenic mouse model of familial amyotrophic lateral sclerosis (limb paralysis, survival)
Type: in vivo
Source text: B6SJL-TgN(SOD1-G93A)1 Gur strain mice were obtained from. The Jackson Laboratory, Bar Harbor, Me. The transgene in these mice carries a high copy number of a mutant allele human SOD1 containing the Gly93 →Ala (G93A) substitution (often referred to as G1H). Mice progressively become paralyzed in one or more limbs, with paralysis due to loss of motor neurons from the spinal cord. The mice are generally described in Gurney M E, Pu H, Chiu A Y, Dal Canto M C, Polchow C Y, Alexander D D, Caliendo J, Hentati A, Kwon Y W, Deng H X, Chen W, Zhai P, Sufit R L, Siddique T: Motor neuron degeneration in mice that express a human Cu,Zn superoxide dismutase mutation. Science 264:1772-1775 (1994), and use of these mice as a model of familial amyotrophic lateral sclerosis is described in Chiu A Y, Zhai P, Dal Canto M C, Peters T M, Kwon Y W, Prattis S M, Gurney M E: Age-dependent penetrance of disease in a transgenic mouse model of familial amyotrophic lateral sclerosis. Mol Cell Neurosci 6:349-362 (1995).
At 105 days following birth, mouse A began manifesting objective symptoms of limb paralysis. A protocol as described in Table 1 was followed.
The thrombopoietin was obtained from Rand D. Systems, Inc. (Minneapolis, Minn.) as carrier-free recombinant thrombopoietin and the thryrotropin was obtained from Ferring Pharmaceuticals; both were administered by intraperitoneal (i.p.) injection. Synthroid®, a form of levothyroxine, was obtained from Flint Pharmaceuticals in 100 μg tablets.
A litter mate of mouse A, referred to as mouse B, was administered a protocol as described in Table 2, with administration commencing prior to the onset of any objective symptoms.
A B6SJL-TgN(SOD1-G93A)1Gur strain mouse as described in Example 1 was obtained, referred to as mouse C. Mouse C was administered a protocol as described in Table 3, with administration commencing prior to the onset of any objective symptoms.

[1] = mouse A, Table 1 protocol, thrombopoietin i.p. days 107, 110, 113

thrombopoietin
objective symptoms observed at day 111 (mouse A, symptomatic from day 105, after thrombopoietin 0.5 cc of 1 μg/cc i.p. on days 107 and 110): marked improvement
objective symptoms observed on day 124 (mouse A, Table 1 protocol): increasing front limb weakness
day of death (mouse A, Table 1 protocol (thrombopoietin, thyrotropin releasing hormone, Synthroid) started after symptom onset): 126 days
objective symptoms observed on day 122 (mouse A, Table 1 protocol, Synthroid in drinking water from day 121): marked improvement in front limbs
objective symptoms observed by day 118 (mouse A, Table 1 protocol, after thrombopoietin plus thyrotropin releasing hormone i.p. on day 117): decreased weakness
objective symptoms observed at day 113 [1]: shaking resumed
objective symptoms observed by day 115 [1]: marked hind limb weakness
objective symptoms observed on day 120 (mouse A, Table 1 protocol, thrombopoietin i.p. through day 119): increased mobility
day of death (mouse B, Table 2 protocol): 132 days
delay of onset of objective signs versus litter mate mouse A (mouse B, Table 2 protocol): 16 days
objective symptoms observed at day 129 (mouse B, Table 2 protocol): posterior limb paralysis
day of first objective signs (slight posterior weakness) (mouse B, Table 2 protocol, thrombopoietin i.p. from day 87, Synthroid in drinking water from day 105, started before symptoms): 121 days
day through which no objective signs of illness were observed (mouse C, Table 3 protocol, thrombopoietin i.p. days 80-88, Synthroid in drinking water from day 92, expected onset 91±14 days): > 110 days
